Experiment [1] has as its target T1, CYP3A4 (Homo sapiens, UniProt P08684). Nature of the experiment: Conventional LC-UV assay quantifying 6β-hydroxytestosterone formation by CYP3A4. The following applies: LC-based IC50, recombinant CYP3A4 microsomes, testosterone substrate, LC-UV quantification of 6β-hydroxytestosterone. The protocol:
(§1) 1′-hydroxymidazolam and microsomes (SUPERSOMES™) prepared from baculovirus-infected insect cells containing recombinant heterologously expressed human CYP plus NADPH CYP reductase were purchased from GenTest Corp. (Woburn, Mass., United States of America). 6β-hydroxytestosterone and 11α-hydroxyprogesterone were obtained from Steraloids Inc. (Wilton, N.H., United States of America).
Inhibition of CYP3A4-mediated oxidation of testosterone was measured by 6β-hydroxytestosterone formation. The kinetics of 6β-hydroxytestosterone formation by CYP3A4 was determined and compared to rate of fluorescence production. Reactions consisted of varying concentrations of testosterone, 50 pmol CYP3A4 per ml, and buffer to a final volume of one milliliter. Reactions were performed at 37° C. and were started upon addition of 1 mM NADPH. […] Samples were placed immediately on ice and the precipitated protein was removed by centrifugation for four minutes at 13,000 rpm. The supernatant was transferred to HPLC vials for analysis.
HPLC analysis was performed using an Agilent 1100 Series HPLC system (Agilent Technologies, Palo Alto, Calif., United States of America) equipped with an online UV-detector. […]

The target of experiment [2] is T1, CYP3A4. Nature of the experiment: ROS-based fluorescence assay (DCFH-DA oxidation) of inhibition of CYP3A4-mediated testosterone oxidation. Particulars: ROS-based IC50, recombinant CYP3A4 microsomes, testosterone substrate 40 μM. The protocol:
as §1
Stock solutions of DCFH-DA (2.5 mM) and NADPH (20 mM) were prepared prior to each experiment in methanol and buffer, respectively. Substrates and inhibitors were prepared in 100% methanol and stored at −20° C. […] Unless otherwise indicated, testosterone were added to the reactions at a final concentration of 40 μM. An equal volume of methanol was added to samples containing no substrate and served as controls. Reactions were performed at 37° C. in 96-well black bottom plates. Inhibitors were added at varying concentrations from stock solutions prepared in either water or methanol. Final methanol concentrations were kept constant among samples (1%, v/v) to eliminate variability in the rate of fluorescence production due to the effect of methanol on CYP activity. […] The concentration of DCF in the reactions was determined using a standard curve constructed with authentic DCF. […]

SMILES strings stand for the structures.

One may read the IC50 as the concentration needed to halve the response being measured.

T1 sequence (P08684 2-503 limits assumed): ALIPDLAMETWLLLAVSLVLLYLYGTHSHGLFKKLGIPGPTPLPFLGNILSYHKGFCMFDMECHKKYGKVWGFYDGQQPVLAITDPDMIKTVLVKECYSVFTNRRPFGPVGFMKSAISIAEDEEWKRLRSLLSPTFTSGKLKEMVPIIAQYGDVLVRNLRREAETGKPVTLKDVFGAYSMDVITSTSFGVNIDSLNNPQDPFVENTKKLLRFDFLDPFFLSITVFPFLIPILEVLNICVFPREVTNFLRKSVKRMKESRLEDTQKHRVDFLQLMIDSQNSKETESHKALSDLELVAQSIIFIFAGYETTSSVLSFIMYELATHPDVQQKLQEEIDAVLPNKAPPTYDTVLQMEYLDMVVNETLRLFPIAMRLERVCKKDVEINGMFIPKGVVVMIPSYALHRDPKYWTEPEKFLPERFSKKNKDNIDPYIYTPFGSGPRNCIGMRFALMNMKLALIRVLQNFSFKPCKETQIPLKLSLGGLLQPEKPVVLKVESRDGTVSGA

Take `CC[C@H]1OC(=O)[C@H](C)[C@@H](O[C@H]2C[C@@](C)(OC)[C@@H](O)[C@H](C)O2)[C@H](C)[C@@H](O[C@@H]2O[C@H](C)C[C@H](N(C)C)[C@H]2O)[C@](C)(O)C[C@@H](C)C(=O)[C@H](C)[C@@H](O)[C@]1(C)O` [Erythromycin]: the IC50 at CYP3A4 [1] came out at 1.7 µM; on CYP3A4 [2], 27.6 µM.
Consider `CC(=O)[C@H]1CC[C@H]2[C@@H]3CCC4=CC(=O)CC[C@]4(C)[C@H]3CC[C@]12C` [Progesterone], for which the results for the IC50 on CYP3A4 [1] and on CYP3A4 [2] were 22.6 µM and 27.6 µM, respectively.

The values above are taken from patent US20060223135A1, “High throughput reactive oxygen species-based cytochrome P450 inhibition assay” (The University of North Carolina at Chapel Hill, priority 2005, published 2006).
